Experiments:
human CD4+ T cells = assay: Cytokine production and proliferation of naïve CD4+ T cells stimulated with anti-CD3 and anti-CD28; format: cell-based; details: 0.02-20 μg/ml; for IFN-γ production by CD4+ T cells / IL-13 production by CD4+ T cells: 6 days, ELISA
Method: A series of four compounds of the present invention (OM-197-MP-AC, OM-197-MC-HD, OM-294-BA-MP, OM-197-MP-HD) were tested directly as summarized below:
Naïve CD4^+ T cells were magnetically sorted from healthy blood donor (buffy coat). The cells were stimulated in the presence or not of graded doses of triacyl derivatives (0.02; 0.2; 2 and 20 μg/ml) using plate-bound anti-CD3 (5 μg/ml) and soluble anti-CD28 (1 μg/ml). After 6 days, cytokine levels (IFN-γ and IL-13) were tested in the culture supernatants using ELISA.
FIGS. 3A-3D: Effect of increasing doses of the four compounds tested (OM-197-MP-AC, n=5; OM-197-MC-HD, n=5; OM-294-BA-MP, n=7; OM-197-MP-HD, n=3) on IFN-γ and IL-13 production of human CD4^+ T cells following a polyclonal activation. Results are expressed as the median (±p25/p75) of n independent experiments and show the percentage (%) proliferation or cytokine production of treated cells versus untreated cells (considered as 100%, see dotted line). The statistical analysis was performed using a nonparametric unpaired Mann-Whitney t test (2-tailed).

murine DC cells = assay: LPS-induced IL-12, TNF-α and IL-10 production by bone marrow derived dendritic cells; format: cell-based, murine (C57BL/7); details: murine BM-derived DC; compound 0.01-100 μg/ml 1 h 30 before LPS 1 μg/ml; 20 h; ELISA
Method: Femora and tibiae from two male C57BL/7, 6 week-old (Charles River Laboratories France), were removed, stripped of muscles and tendons, and desinfected with 70% ethanol. Both ends of each bone were cut and the marrow was flushed with HBSS (Gibco BRL) using a syringe with a 26-gauge needle. The resulting cell suspension was centrifuged for 5 min. at 500 g and washed in HBSS. The cells were resuspended at 3×10^5 cells/ml in RPMI-1640 (Gibco BRL) supplemented with 2 mM L-glutamin (Sigma), 100 U/ml penicillin (Sigma), 100 μg/ml streptomycin (Sigma), 50 μM β-mercaptoethanol (Sigma), 10% heat-inactivated FCS (Sigma) and 15 ng/ml murine rGM-CSF (R&D).
To generate bone marrow (BM) derived dendritic cells (DC), BM leukocytes were cultured in 100-mm bacteriological petri dishes (Falcon 1029) for 8 days at 37° C. in 5% CO2. On day 0, 10 ml of cell suspension were seeded per dish. On day 3, another 10 ml of freshly prepared medium were added to each plate and on day 6, 9 ml of top medium were carefully removed from each plate and replaced by 10 ml of fresh medium.
Non-adherent cells of the 8-day old BM cell cultures were collected, centrifuged for 5 min. at 500 g, and resuspended at 1.25×10^6 cells/ml in supplemented RPMI containing 10 ng/ml GM-CSF. The cells were then seeded in 24-well tissue culture plates ([…]) and incubated for 1 h 30 at 37° C. in 5% CO2 in the absence or presence of OM-294-DP or OM-197-MP-AC (0.01-100 μg/ml/200 μl/well). LPS (E.coli O26:B6, Sigma), was then added at 1 μg/ml, and the plates were further incubated. After 20 h incubation, the supernatants were collected for analysis of cytokines. IL-12p70, IL-10, and TNF-α concentrations in DC culture supernatants were measured by ELISA using OptEIA matched Ab pairs from BD Pharmingen. Supersignal ELISA Pico chemiluminescent peroxidase substrate (BD Pharmingen) was used for the detection by luminometry (Wallac 1420 multilabel counter Victor-2). The assays were performed according to manufacturer's instructions.
FIG. 1: IL-12 (left panels) and IL-10 (right panels) secretion by murine DC stimulated by LPS (1 μg/ml) alone, or first during 90 minutes with the indicated concentrations (in μg/ml) of OM-197-MP-AC (A) or 294-DP (B), and then by LPS (1 μg/ml) for 20 additional hours. The supernatants were collected from the DC cultures and analyzed by ELISA for the presence of IL-12 and IL-10.
FIG. 2: TNF-α secretion by murine DC stimulated by LPS (1 μg/ml) alone, or first during 90 minutes with the indicated concentrations (in μg/ml) of 294-DP (294), or of OM-197-MP-AC (197), and then by LPS (1 μg/ml) for 20 additional hours. The supernatants were collected from the DC cultures and analyzed by ELISA for the presence of TNF-α.

[1] = test system: Limulus Amoebocyte Lysate; assay: Limulus Amoebocyte Lysate chromogenic test (LAL endotoxicity); format: biochemical
Method: Endotoxicity was determined first for OM-197-MP-AC and for OM-294-DP by the Limulus Amoebocyte Lysate chromogenic test (Chromogenic-LAL of Bio-Whittaker, kit n° 50-65OU).
The enzymatic reaction is carried out at 37° C. and the formation of the chromogen over time is measured at 405 nm. The time necessary to reach 0.2 units of D.O. is recorded and the endotoxic activity calculated in relation to a LPS standard (standard curve). The results are expressed in EU (Endotoxin Unit) in relation to a standardized preparation of E. coli LPS (1 EU corresponds to 0.08 ng equivalent LPS).

Structure (SMILES)	T cell proliferation (human CD4+ T cells)	IFN-γ production by CD4+ T cells (human CD4+ T cells)	IL-13 production by CD4+ T cells (human CD4+ T cells)	LPS-induced production of IL-10 (murine DC cells)	LPS-induced production of IL-12 (murine DC cells)	LPS-induced production of TNF-α (murine DC cells)	Limulus activity in the chromogenic LAL assay [1]
CCCCCCCCCCCC(=O)O[C@H](CCCCCCCCCCC)CC(=O)N[C@@H](CCCCN)C(=O)NCCC[C@H](COP(=O)(O)O)NC(=O)C[C@H](O)CCCCCCCCCCC [OM-294-BA-MP, (5S,11R)-1-Amino-5-[(R)-3-dodecanoyloxytetradecanoylamino]-6-oxo-7-aza-11-[(R)-3-hydroxytetradecanoylamino]-dodecan-12-ol 12-dihydrogenophosphate]	unaffected	unaffected	reduced				
CCCCCCCCCCCC(=O)O[C@H](CCCCCCCCCCC)CC(=O)N[C@@H](CC(=O)O)C(=O)NCCC[C@H](COC(=O)CCCCC(O)CO)NC(=O)C[C@H](O)CCCCCCCCCCC (stereo partly drawn) [OM-197-MC-HD, N-[(R)-3-dodecanoyloxytetradecanoylamino]-L-aspartic acid, α-N-{(4R)-5-hydroxy-4-[(R)-3-hydroxytetradecanoylamino]pentyl}amide 5-O-(6,7-dihydroxyheptanoate)]	unaffected	unaffected	reduced				
CCCCCCCCCCCC(=O)O[C@H](CCCCCCCCCCC)CC(=O)N[C@@H](CCOP(=O)(O)O)C(=O)NCCC[C@H](COP(=O)(O)O)NC(=O)C[C@H](O)CCCCCCCCCCC [OM-294-DP]				increase	decrease	decrease	very little or no Limulus activity
CCCCCCCCCCCC(=O)O[C@H](CCCCCCCCCCC)CC(=O)N[C@@H](CCOP(=O)(O)O)C(=O)NCCC[C@H](COC(=O)CCCCC(O)CO)NC(=O)C[C@H](O)CCCCCCCCCCC (stereo partly drawn) [OM-197-MP-HD, (3S, 9R)-3-[(R)-3-dodecanoyloxytetradecanoylamino]-4-oxo-5-aza-9-[(R)-3-hydroxytetradecanoylamino]-decan-1, 10-diol 1-dihydrogenophosphate 10-(6,7-dihydroxyheptanoate)]	unaffected	unaffected	reduced				
